This is an account of results in ChEMBL document CHEMBL1201862, “PubChem BioAssay data set” (2004).

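Grown in 96-well plates, cells were treated for 48 hours with each compound at five concentrations. Insufficient inhibition: endpoint recorded as highest concentration tested. The concentration for 50% growth inhibition is given as GI50.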 Activity calls are given as the source filed them. Cut-off read from the data, not from the text of the source: active = GI50 up to about 1.1 µM and inactive = higher.

Test systems include NCI-H23; RPMI-8226; M14; NCI-H460; OVCAR-8; SK-MEL-28; IGROV-1; SR; MCF7; Malme-3M; SK-MEL-2; HCT-15; A549; OVCAR-5; UACC-62; SW-620; ACHN; MOLT-4; HCC 2998; NCI-H522.
Common to all, as to test: NCI anticancer screen, dose series, 48 h

As for `O=C1CC(=O)n2cnc3cccc(c32)N1`, the GI50 with NCI-H23, in the assay on RPMI-8226, in the assay on M14, in the assay with NCI-H460, in the assay on OVCAR-8 and in the assay on SK-MEL-28 was > 100 µM (inactive) throughout. For the same molecule, the GI50 in the assay on IGROV-1 is > 100 µM (inactive); with SR, > 100 µM (inactive); with MCF7 it was > 100 µM (inactive); in the assay on Malme-3M it was > 100 µM (inactive); with SK-MEL-2, > 100 µM (inactive); with HCT-15 it was over 100 µM. Besides, the GI50 in the assay with A549, in the assay with OVCAR-5, in the assay on UACC-62 and in the assay with SW-620 was > 100 µM (inactive) in each case.

For the molecule `COc1ccc2oc(=O)c(-c3csc(C)n3)cc2c1`, the GI50 is > 100 µM (inactive) with RPMI-8226; 75.2 µM (inactive) with M14; > 100 µM (inactive) in the assay on NCI-H460; 44.4 µM (inactive) in the assay on ACHN; > 100 µM (inactive) with SK-MEL-28; 49.4 µM (inactive) in the assay on IGROV-1. The GI50 is > 100 µM (inactive) with SR; > 100 µM (inactive) in the assay with MCF7; 41.4 µM (inactive) in the assay on SK-MEL-2; over 100 µM with HCT-15; > 100 µM (inactive) with A549; > 100 µM (inactive) in the assay on OVCAR-5. Further, the GI50 in the assay on UACC-62 was 22.9 µM (inactive); with SW-620, > 100 µM (inactive); with MOLT-4, > 100 µM (inactive); in the assay on HCC 2998, > 100 µM (inactive).

On to `O=P(O)(O)CCP(=O)(O)O`, for which the GI50 in the assay on NCI-H23, in the assay on RPMI-8226, in the assay with M14, with NCI-H460, in the assay with NCI-H522 and in the assay on ACHN was > 100 µM (inactive) throughout. The GI50 with OVCAR-8, with SK-MEL-28, with IGROV-1, with SR, with MCF7 and with Malme-3M was > 100 µM (inactive) throughout. In addition, the GI50 is > 100 µM (inactive) with SK-MEL-2; over 100 µM in the assay with HCT-15; > 100 µM (inactive) in the assay on A549; > 100 µM (inactive) in the assay on OVCAR-5; > 100 µM (inactive) in the assay with UACC-62; > 100 µM (inactive) with SW-620. Also, the GI50 in the assay on MOLT-4 was > 100 µM (inactive).

On to `O=S(=O)(c1ccccc1)c1ccc(-c2nc(-c3ccc4c(c3)Sc3ccccc3S4)cs2)cc1`, for which the GI50 is 11.2 µM (inactive) in the assay with NCI-H23; > 100 µM (inactive) in the assay with RPMI-8226; 36.1 µM (inactive) in the assay with M14; > 100 µM (inactive) in the assay with NCI-H460; 38.7 µM (inactive) in the assay with ACHN; 71.9 µM (inactive) in the assay with OVCAR-8. Besides, the GI50 is 32.9 µM (inactive) in the assay on SR; 61 µM (inactive) in the assay on MCF7; 39.5 µM (inactive) with Malme-3M; over 100 µM in the assay with HCT-15; > 100 µM (inactive) in the assay with A549; > 100 µM (inactive) in the assay with OVCAR-5. Further, the GI50 with UACC-62 was 25.6 µM (inactive); in the assay on SW-620, > 100 µM (inactive); with MOLT-4, 31.6 µM (inactive); in the assay with HCC 2998 it was 35.5 µM (inactive).

As to `CN(C)c1ccc(C=C2N=C(c3ccccc3)N(c3cc(C(=O)c4ccccc4)ccc3N3C(=O)/C(=C/c4ccc(N(C)C)cc4)N=C3c3ccccc3)C2=O)cc1`, the GI50 was 3.01 µM (inactive) in the assay on RPMI-8226; 4.95 µM (inactive) in the assay with M14; 3.94 µM (inactive) in the assay with NCI-H460; 6.31 µM (inactive) in the assay on ACHN; 11.5 µM (inactive) in the assay on OVCAR-8; > 100 µM (inactive) with SK-MEL-28. For the same molecule, the GI50 with IGROV-1 is 5.86 µM (inactive); with SR it was 3.3 µM (inactive); with MCF7 it was 3.33 µM (inactive); in the assay on SK-MEL-2, 3.29 µM (inactive); with HCT-15, 4.49 µM; with A549 it was 6.31 µM (inactive). The GI50 was 35.5 µM (inactive) with OVCAR-5; 4.24 µM (inactive) with UACC-62; 5.32 µM (inactive) in the assay on SW-620; 3.38 µM (inactive) in the assay with MOLT-4; 3.76 µM (inactive) with HCC 2998.

As to `CC1(C)SCc2nc3ccccc3n21`, the GI50 in the assay with NCI-H23, in the assay with RPMI-8226, in the assay on M14, in the assay on NCI-H460, with NCI-H522 and with ACHN was > 100 µM (inactive) throughout. Moreover, the GI50 in the assay on OVCAR-8, in the assay on SK-MEL-28, in the assay with IGROV-1, in the assay on MCF7, in the assay on Malme-3M and in the assay with SK-MEL-2 was > 100 µM (inactive) each time. Further, the GI50 with HCT-15 is over 100 µM; with A549, > 100 µM (inactive); with OVCAR-5, > 100 µM (inactive); with UACC-62, > 100 µM (inactive); with SW-620 it was > 100 µM (inactive); in the assay on MOLT-4, > 100 µM (inactive). The GI50 in the assay on HCC 2998 is > 100 µM (inactive).

Regarding `Br[C@@H]1[C@H]2c3nc4ccccc4nc3[C@@H]1C[C@H]2Br`, the GI50 was 58.3 µM (inactive) in the assay on NCI-H23; > 100 µM (inactive) with M14; 64.6 µM (inactive) with NCI-H460; 54.8 µM (inactive) with NCI-H522; > 100 µM (inactive) in the assay on ACHN; > 100 µM (inactive) in the assay on OVCAR-8. Besides, the GI50 with SK-MEL-28 was > 100 µM (inactive); in the assay with IGROV-1 it was > 100 µM (inactive); in the assay on SR, 48.9 µM (inactive); with MCF7, 81.7 µM (inactive); in the assay with Malme-3M, > 100 µM (inactive); in the assay on HCT-15, 61.5 µM. In addition, the GI50 is 58.9 µM (inactive) in the assay on A549; > 100 µM (inactive) in the assay with OVCAR-5; > 100 µM (inactive) in the assay with UACC-62; > 100 µM (inactive) in the assay with SW-620; 31.7 µM (inactive) in the assay with MOLT-4; > 100 µM (inactive) in the assay on HCC 2998.

Consider `COP(=O)(OC)/C(=C\c1cn(C(c2ccccc2)(c2ccccc2)c2ccccc2)cn1)NC(C)=O`, for which the GI50 with NCI-H23, in the assay with M14, in the assay on NCI-H460, in the assay on NCI-H522, with ACHN and with OVCAR-8 was > 100 µM (inactive) throughout. In addition, the GI50 is > 100 µM (inactive) in the assay with SK-MEL-28; > 100 µM (inactive) in the assay on IGROV-1; 81.8 µM (inactive) in the assay on SR; 88.3 µM (inactive) in the assay with MCF7; > 100 µM (inactive) with Malme-3M; over 100 µM in the assay with HCT-15. Further, the GI50 was 53.7 µM (inactive) in the assay on A549; > 100 µM (inactive) in the assay on OVCAR-5; > 100 µM (inactive) with UACC-62; > 100 µM (inactive) in the assay with SW-620; 34.4 µM (inactive) in the assay on MOLT-4; > 100 µM (inactive) in the assay on HCC 2998.

In the case of `CCCCCCCCC/C=C1/CC(CO)(COC(=O)c2ccccc2)OC1=O` (centres undefined), the GI50 was 15 µM (inactive) in the assay on NCI-H23; 14 µM (inactive) in the assay with M14; 10 µM (inactive) in the assay on NCI-H460; 13.7 µM (inactive) in the assay on NCI-H522; 12.4 µM (inactive) in the assay on ACHN; 13.7 µM (inactive) in the assay on SK-MEL-28. The GI50 is 16.1 µM (inactive) in the assay with IGROV-1; 17.9 µM (inactive) in the assay with SR; 16.3 µM (inactive) in the assay on MCF7; 6.92 µM (inactive) in the assay on Malme-3M; 16.3 µM (inactive) in the assay with SK-MEL-2; 16.3 µM in the assay with HCT-15. Also, the GI50 in the assay on A549 is 12.9 µM (inactive); in the assay on OVCAR-5, 12.2 µM (inactive); with UACC-62, 14.7 µM (inactive); with SW-620, 14.4 µM (inactive); with MOLT-4, 4.98 µM (inactive); in the assay on HCC 2998, 14.6 µM (inactive).

With `COC(=O)c1ccccc1C#CCCCOS(C)(=O)=O`, the GI50 with NCI-H23, in the assay on RPMI-8226, in the assay on M14, in the assay on NCI-H460, in the assay with ACHN and in the assay on OVCAR-8 was > 10 µM (inactive) each time. Further, the GI50 with SK-MEL-28, in the assay with IGROV-1, with SR, with MCF7, in the assay with Malme-3M and in the assay with SK-MEL-2 was > 10 µM (inactive) throughout. Further, the GI50 in the assay on HCT-15 was over 10 µM; in the assay on A549, > 10 µM (inactive); in the assay with OVCAR-5, > 10 µM (inactive); in the assay with UACC-62, > 10 µM (inactive); in the assay on SW-620 it was > 10 µM (inactive); with MOLT-4, > 10 µM (inactive). Moreover, the GI50 in the assay with HCC 2998 is > 10 µM (inactive).

With `CC(NC(=O)C(C)C(=O)Nc1ccc(C(F)(F)F)cc1)C(N)=O` (centres undefined), the GI50 in the assay with NCI-H23, in the assay on RPMI-8226, in the assay on M14, with NCI-H460, with NCI-H522 and with ACHN was > 100 µM (inactive) each time. The GI50 with OVCAR-8 was > 100 µM (inactive); in the assay on IGROV-1, > 100 µM (inactive); in the assay on SR it was > 10 µM (inactive); in the assay with MCF7, > 100 µM (inactive); in the assay with Malme-3M, > 100 µM (inactive); with SK-MEL-2, > 100 µM (inactive). Also, the GI50 with HCT-15 was over 100 µM; with A549, > 100 µM (inactive); in the assay on OVCAR-5 it was > 100 µM (inactive); in the assay on UACC-62, > 100 µM (inactive); in the assay on SW-620, > 100 µM (inactive); in the assay on MOLT-4, > 10 µM (inactive).
